Reference: PubChem BioAssay (NCI)
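48-hour exposure; five concentrations; linearly interpolated endpoints. Definition used: TGI = concentration required for complete inhibition of growth.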 Where a SMILES comes first, the peptide text is derived from it. [ ]: non-standard residue; d: D form. The star is where a group is joined. Phe(2-OMe) = COc1ccccc1C[CH](N)C(=O)O; Cbz = O=C(OCc1ccccc1)*; OBn = c1ccc(CO*)cc1

How the values were obtained:
Experiment in all cases: DTP human tumour cell line panel, 48 h
UACC-62 melanoma = tested on: UACC-62 melanoma
SR leukemia = tested on: SR leukemia
BT-549 breast = tested on: BT-549 breast
HL-60(TB) leukemia = tested on: HL-60(TB) leukemia
RPMI-8226 leukemia = tested on: RPMI-8226 leukemia
SK-MEL-5 melanoma = tested on: SK-MEL-5 melanoma
CCRF-CEM leukemia = tested on: CCRF-CEM leukemia
UACC-257 melanoma = tested on: UACC-257 melanoma
MCF7 breast = tested on: MCF7 breast
SW-620 colon = tested on: SW-620 colon
SNB-75 CNS = tested on: SNB-75 CNS
IGROV1 ovarian = tested on: IGROV1 ovarian
MDA-N = tested on: MDA-N
A549 NSCLC = tested on: A549 NSCLC
HCC-2998 colon = tested on: HCC-2998 colon
NCI-H23 lung = tested on: NCI-H23 lung
OVCAR-5 ovarian = tested on: OVCAR-5 ovarian
A498 renal = tested on: A498 renal
K-562 leukemia = tested on: K-562 leukemia
SK-MEL-2 melanoma = tested on: SK-MEL-2 melanoma
HT29 colon = tested on: HT29 colon
MALME-3M melanoma = tested on: MALME-3M melanoma
HS 578T breast = tested on: HS 578T breast
NCI-H226 lung = tested on: NCI-H226 lung
M14 melanoma = tested on: M14 melanoma
SK-MEL-28 melanoma = tested on: SK-MEL-28 melanoma
NCI-H460 lung = tested on: NCI-H460 lung
OVCAR-8 ovarian = tested on: OVCAR-8 ovarian
ACHN renal = tested on: ACHN renal
RXF 393 renal = tested on: RXF 393 renal
786-0 renal = tested on: 786-0 renal
UO-31 renal = tested on: UO-31 renal
PC-3 prostate = tested on: PC-3 prostate
TK-10 renal = tested on: TK-10 renal
HCT-116 colon = tested on: HCT-116 colon
EKVX NSCLC = tested on: EKVX NSCLC
HOP-62 NSCLC = tested on: HOP-62 NSCLC
MOLT-4 leukemia = tested on: MOLT-4 leukemia
KM12 colon = tested on: KM12 colon
SNB-19 CNS = tested on: SNB-19 CNS
HOP-92 NSCLC = tested on: HOP-92 NSCLC
COLO 205 colon = tested on: COLO 205 colon
U251 CNS = tested on: U251 CNS
OVCAR-3 ovarian = tested on: OVCAR-3 ovarian
SN12C renal = tested on: SN12C renal
DU-145 prostate = tested on: DU-145 prostate
SF-539 CNS = tested on: SF-539 CNS
SF-268 CNS = tested on: SF-268 CNS
HCT-15 colon = tested on: HCT-15 colon
CAKI-1 renal = tested on: CAKI-1 renal
MDA-MB-231 breast = tested on: MDA-MB-231 breast
SF-295 CNS = tested on: SF-295 CNS
NCI-H522 lung = tested on: NCI-H522 lung
LOX IMVI melanoma = tested on: LOX IMVI melanoma
MDA-MB-435 = tested on: MDA-MB-435
NCI/ADR-RES ovarian = tested on: NCI/ADR-RES ovarian
SK-OV-3 ovarian = tested on: SK-OV-3 ovarian
OVCAR-4 ovarian = tested on: OVCAR-4 ovarian

What does the source list for `COC(=O)C(Cc1ccccc1OC)NC(=O)C(CC(=O)OCc1ccccc1)NC(=O)OCc1ccccc1` (stereo not drawn) (Cbz-Asp(OBn)-[Phe(2-OMe)]-OMe; configuration not given here)?
TGI (UACC-62 melanoma): > 100 µM; TGI (SR leukemia): 84.6 µM; TGI (BT-549 breast): > 100 µM; TGI (HL-60(TB) leukemia): > 100 µM; TGI (RPMI-8226 leukemia): > 100 µM; TGI (SK-MEL-5 melanoma): > 100 µM; TGI (CCRF-CEM leukemia): > 100 µM; TGI (UACC-257 melanoma): > 100 µM; TGI (MCF7 breast): > 100 µM; TGI (SW-620 colon): > 100 µM; TGI (SNB-75 CNS): > 100 µM; TGI (IGROV1 ovarian): > 100 µM; TGI (MDA-N): > 100 µM; TGI (A549 NSCLC): > 100 µM; TGI (HCC-2998 colon): > 100 µM; TGI (NCI-H23 lung): > 100 µM; TGI (OVCAR-5 ovarian): > 100 µM; TGI (A498 renal): > 100 µM; TGI (K-562 leukemia): > 100 µM; TGI (SK-MEL-2 melanoma): > 100 µM; TGI (HT29 colon): > 100 µM; TGI (MALME-3M melanoma): > 100 µM; TGI (HS 578T breast): > 100 µM; TGI (NCI-H226 lung): > 100 µM; TGI (M14 melanoma): > 100 µM; TGI (SK-MEL-28 melanoma): > 100 µM; TGI (NCI-H460 lung): > 100 µM; TGI (OVCAR-8 ovarian): > 100 µM; TGI (ACHN renal): > 100 µM; TGI (RXF 393 renal): > 100 µM; TGI (786-0 renal): > 100 µM; TGI (UO-31 renal): > 100 µM; TGI (PC-3 prostate): > 100 µM; TGI (TK-10 renal): > 100 µM; TGI (HCT-116 colon): > 100 µM; TGI (EKVX NSCLC): > 100 µM; TGI (HOP-62 NSCLC): > 100 µM; TGI (MOLT-4 leukemia): > 100 µM; TGI (KM12 colon): > 100 µM; TGI (SNB-19 CNS): > 100 µM; TGI (HOP-92 NSCLC): > 100 µM; TGI (COLO 205 colon): > 100 µM; TGI (U251 CNS): > 100 µM

`O=Cc1cn(CCCCCn2cc(C=O)c3ccccc32)c2ccccc12` was tested. Which TGI (UACC-62 melanoma) did it give?
The TGI was over 100 µM.

What about the TGI (SR leukemia) of the same compound?
The TGI was over 100 µM.

And the TGI (BT-549 breast)?
Its TGI is over 100 µM.

What about the TGI (HL-60(TB) leukemia) of the same compound?
Its TGI is over 100 µM.

What about the TGI (RPMI-8226 leukemia) of the same compound?
Its TGI is over 100 µM.

What about the TGI (SK-MEL-5 melanoma) of the same compound?
The TGI was over 100 µM.

And the TGI (OVCAR-3 ovarian)?
The TGI was over 100 µM.

And the TGI (CCRF-CEM leukemia)?
Its TGI is over 100 µM.

And the TGI (UACC-257 melanoma)?
The TGI was over 100 µM.

And the TGI (SN12C renal)?
The TGI was over 100 µM.

What about the TGI (DU-145 prostate) of the same compound?
Its TGI is over 100 µM.

And the TGI (SF-539 CNS)?
The TGI was over 100 µM.

What about the TGI (SW-620 colon) of the same compound?
Its TGI is over 100 µM.

And the TGI (SF-268 CNS)?
The TGI was 72.6 µM.

And the TGI (IGROV1 ovarian)?
The TGI was over 100 µM.

What about the TGI (MDA-N) of the same compound?
The TGI was over 100 µM.

What about the TGI (A549 NSCLC) of the same compound?
The TGI was over 100 µM.

And the TGI (HCT-15 colon)?
Its TGI is over 100 µM.

What about the TGI (NCI-H23 lung) of the same compound?
The TGI was over 100 µM.

And the TGI (OVCAR-5 ovarian)?
The TGI was 6.5 µM.

What about the TGI (CAKI-1 renal) of the same compound?
The TGI was over 100 µM.

What about the TGI (MDA-MB-231 breast) of the same compound?
Its TGI is over 100 µM.

What about the TGI (SK-MEL-2 melanoma) of the same compound?
Its TGI is over 100 µM.

What about the TGI (SF-295 CNS) of the same compound?
Its TGI is over 100 µM.

And the TGI (HT29 colon)?
Its TGI is over 100 µM.

What about the TGI (MALME-3M melanoma) of the same compound?
The TGI was over 100 µM.

And the TGI (HS 578T breast)?
Its TGI is 62.2 µM.

What about the TGI (NCI-H226 lung) of the same compound?
Its TGI is over 100 µM.

And the TGI (M14 melanoma)?
The TGI was over 100 µM.

What about the TGI (NCI-H460 lung) of the same compound?
The TGI was 11.4 µM.

What about the TGI (OVCAR-8 ovarian) of the same compound?
Its TGI is over 100 µM.

What about the TGI (NCI-H522 lung) of the same compound?
Its TGI is over 100 µM.

What about the TGI (ACHN renal) of the same compound?
Its TGI is over 100 µM.

And the TGI (RXF 393 renal)?
The TGI was over 100 µM.

And the TGI (LOX IMVI melanoma)?
The TGI was over 100 µM.

And the TGI (MDA-MB-435)?
Its TGI is over 100 µM.

And the TGI (NCI/ADR-RES ovarian)?
The TGI was over 100 µM.

What about the TGI (786-0 renal) of the same compound?
The TGI was over 100 µM.

And the TGI (UO-31 renal)?
The TGI was over 100 µM.

What about the TGI (PC-3 prostate) of the same compound?
The TGI was over 100 µM.

What about the TGI (TK-10 renal) of the same compound?
Its TGI is over 100 µM.

And the TGI (SK-OV-3 ovarian)?
Its TGI is over 100 µM.

And the TGI (HCT-116 colon)?
The TGI was over 100 µM.

What about the TGI (EKVX NSCLC) of the same compound?
Its TGI is over 100 µM.

And the TGI (MOLT-4 leukemia)?
The TGI was over 100 µM.

And the TGI (SNB-19 CNS)?
The TGI was over 100 µM.

And the TGI (HOP-92 NSCLC)?
The TGI was over 100 µM.

And the TGI (COLO 205 colon)?
The TGI was over 100 µM.

And the TGI (U251 CNS)?
The TGI was over 100 µM.

Which results are given for `CSc1cc(Cl)c(C)cc1S(=O)(=O)NC(=O)Nc1ccc(Cl)cc1`?
TGI (UACC-62 melanoma): 14.8 µM; TGI (SR leukemia): > 100 µM; TGI (BT-549 breast): > 100 µM; TGI (HL-60(TB) leukemia): 28 µM; TGI (RPMI-8226 leukemia): > 100 µM; TGI (SK-MEL-5 melanoma): 64.9 µM; TGI (OVCAR-3 ovarian): 74 µM; TGI (CCRF-CEM leukemia): 39.2 µM; TGI (UACC-257 melanoma): 79.8 µM; TGI (SN12C renal): > 100 µM; TGI (MCF7 breast): > 100 µM; TGI (SW-620 colon): 92.7 µM; TGI (SF-268 CNS): > 100 µM; TGI (SNB-75 CNS): 62.1 µM; TGI (IGROV1 ovarian): > 100 µM; TGI (MDA-N): > 100 µM; TGI (A549 NSCLC): > 100 µM; TGI (HCC-2998 colon): 38.4 µM; TGI (HCT-15 colon): 84.1 µM; TGI (NCI-H23 lung): 40.4 µM; TGI (OVCAR-5 ovarian): > 100 µM; TGI (A498 renal): > 100 µM; TGI (CAKI-1 renal): > 100 µM; TGI (MDA-MB-231 breast): > 100 µM; TGI (K-562 leukemia): > 100 µM; TGI (SK-MEL-2 melanoma): 49 µM; TGI (SF-295 CNS): > 100 µM; TGI (HT29 colon): > 100 µM; TGI (MALME-3M melanoma): 85.1 µM; TGI (HS 578T breast): > 100 µM; TGI (NCI-H226 lung): 45.1 µM; TGI (M14 melanoma): > 100 µM; TGI (SK-MEL-28 melanoma): > 100 µM; TGI (NCI-H460 lung): > 100 µM; TGI (OVCAR-8 ovarian): > 100 µM; TGI (NCI-H522 lung): 41.4 µM; TGI (ACHN renal): > 100 µM; TGI (RXF 393 renal): 51.7 µM; TGI (OVCAR-4 ovarian): > 100 µM; TGI (LOX IMVI melanoma): 52.5 µM; TGI (MDA-MB-435): 88 µM; TGI (NCI/ADR-RES ovarian): 97.1 µM; TGI (786-0 renal): > 100 µM; TGI (UO-31 renal): 31.5 µM; TGI (PC-3 prostate): > 100 µM; TGI (TK-10 renal): 81.5 µM; TGI (SK-OV-3 ovarian): > 100 µM; TGI (HCT-116 colon): 35.7 µM; TGI (EKVX NSCLC): 87.8 µM; TGI (HOP-62 NSCLC): 63.2 µM; TGI (MOLT-4 leukemia): 40.9 µM; TGI (KM12 colon): 80.8 µM; TGI (SNB-19 CNS): 92 µM; TGI (HOP-92 NSCLC): 45.5 µM; TGI (COLO 205 colon): 29.8 µM; TGI (U251 CNS): > 100 µM
